Read-outs that look alike come from different tables or passages of the source.
Key:
Type in all cases: in vivo
[1] = tested on: barnyardgrass (Echinochloa crus-galli); assay: Test A preemergence; details: Echinochloa crus-galli, pre-emergence, 240 h, preemergence, 0 to 100 scale where 0 is no effect and 100 is complete control, read-out: Barnyardgrass plant response rating; for pest or weed control at 125 g/ha: 125 g ai/ha, approx. 10 d; for pest or weed control at 500 g/ha: 500 g ai/ha
Outline: (§1)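 In a loam soil and sand blend, planted seeds got a preemergence directed soil spray, and young plants at the one- to two-leaf stage, 2–10 cm high, got a postemergence application; ~10 d greenhouse hold; injury rated visually, 0 = none, 100 = complete control.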

[2] = tested on: ryegrass, Italian (Italian ryegrass, Lolium multiflorum); assay: Test A preemergence; details: Lolium multiflorum, pre-emergence, 240 h, preemergence, 0 to 100 scale where 0 is no effect and 100 is complete control, read-out: Ryegrass, Italian plant response rating; for pest or weed control at 125 g/ha: 125 g ai/ha, approx. 10 d; for pest or weed control at 500 g/ha: 500 g ai/ha
Outline: as §1

Kochia (Kochia scoparia) [3] = assay: Test A preemergence; details: Bassia scoparia, pre-emergence, 240 h, preemergence, 0 to 100 scale where 0 is no effect and 100 is complete control, read-out: Kochia plant response rating; for pest or weed control at 125 g/ha: 125 g ai/ha, approx. 10 d; for pest or weed control at 500 g/ha: 500 g ai/ha
Outline: as §1

[4] = tested on: pigweed (Amaranthus retroflexus); assay: Test A preemergence; details: Amaranthus retroflexus, pre-emergence, 240 h, preemergence, 0 to 100 scale where 0 is no effect and 100 is complete control, read-out: Pigweed plant response rating; for pest or weed control at 125 g/ha: 125 g ai/ha, approx. 10 d; for pest or weed control at 500 g/ha: 500 g ai/ha
[5] = tested on: ragweed (common ragweed, Ambrosia elatior); assay: Test A preemergence; details: Ambrosia artemisiifolia, pre-emergence, 240 h, preemergence, 0 to 100 scale where 0 is no effect and 100 is complete control, read-out: Ragweed plant response rating; for pest or weed control at 125 g/ha: 125 g ai/ha, approx. 10 d; for pest or weed control at 500 g/ha: 500 g ai/ha
Outline: as §1

[6] = tested on: giant foxtail (Setaria faberii); assay: Test A preemergence; details: Setaria faberi, pre-emergence, 240 h, preemergence, 0 to 100 scale where 0 is no effect and 100 is complete control, read-out: Foxtail, Giant plant response rating; for pest or weed control at 125 g/ha: 125 g ai/ha, approx. 10 d; for pest or weed control at 500 g/ha: 500 g ai/ha
Outline: as §1

[7] = tested on: barnyardgrass (Echinochloa crus-galli); assay: Test A postemergence; details: Echinochloa crus-galli, post-emergence, 240 h, postemergence; for pest or weed control at 125 g/ha: 125 g ai/ha; for pest or weed control at 500 g/ha: 500 g ai/ha, 0 to 100 scale, 0 is no effect, 100 is complete control
Outline: as §1

corn (Zea mays) = assay: Test A postemergence; details: Zea mays, post-emergence, 240 h, postemergence; for plant injury at 125 g/ha: 125 g ai/ha; for plant injury at 500 g/ha: 500 g ai/ha, 0 to 100 scale, 0 is no effect, 100 is complete control
Outline: as §1

[8] = tested on: wheat (Triticum aestivum); assay: Test A postemergence; details: Triticum aestivum, post-emergence, 240 h, postemergence; for plant injury at 125 g/ha: 125 g ai/ha; for plant injury at 500 g/ha: 500 g ai/ha, 0 to 100 scale, 0 is no effect, 100 is complete control
Outline: as §1

[9] = tested on: ryegrass, Italian (Italian ryegrass, Lolium multiflorum); assay: Test A postemergence; details: Lolium multiflorum, post-emergence, 240 h, postemergence; for pest or weed control at 125 g/ha: 125 g ai/ha; for pest or weed control at 500 g/ha: 500 g ai/ha, 0 to 100 scale, 0 is no effect, 100 is complete control
Outline: as §1

[10] = tested on: blackgrass (Alopecurus myosuroides); assay: Test A postemergence; details: Alopecurus myosuroides, post-emergence, 240 h, postemergence; for pest or weed control at 125 g/ha: 125 g ai/ha; for pest or weed control at 500 g/ha: 500 g ai/ha, 0 to 100 scale, 0 is no effect, 100 is complete control
Outline: as §1

Kochia (Kochia scoparia) [11] = assay: Test A postemergence; details: Bassia scoparia, post-emergence, 240 h, postemergence; for pest or weed control at 125 g/ha: 125 g ai/ha; for pest or weed control at 500 g/ha: 500 g ai/ha, 0 to 100 scale, 0 is no effect, 100 is complete control
Outline: as §1

[12] = tested on: Galium (catchweed bedstraw, Galium aparine); assay: Test A postemergence; details: Galium, post-emergence, 240 h, postemergence; for pest or weed control at 125 g/ha: 125 g ai/ha; for pest or weed control at 500 g/ha: 500 g ai/ha, 0 to 100 scale, 0 is no effect, 100 is complete control
Outline: as §1

[13] = tested on: pigweed (Amaranthus retroflexus); assay: Test A postemergence; details: Amaranthus retroflexus, post-emergence, 240 h, postemergence; for pest or weed control at 125 g/ha: 125 g ai/ha; for pest or weed control at 500 g/ha: 500 g ai/ha, 0 to 100 scale, 0 is no effect, 100 is complete control
Outline: as §1

[14] = tested on: giant foxtail (Setaria faberii); assay: Test A postemergence; details: Setaria faberi, post-emergence, 240 h, postemergence; for pest or weed control at 125 g/ha: 125 g ai/ha; for pest or weed control at 500 g/ha: 500 g ai/ha, 0 to 100 scale, 0 is no effect, 100 is complete control
Outline: as §1

[15] = read-out: Barnyardgrass plant response rating
[16] = read-out: Corn plant response rating
[17] = read-out: Wheat plant response rating
[18] = read-out: Ryegrass, Italian plant response rating
[19] = read-out: Blackgrass plant response rating
[20] = read-out: Kochia plant response rating
[21] = read-out: Galium plant response rating
[22] = read-out: Pigweed plant response rating
[23] = read-out: Foxtail, Giant plant response rating

CCc1cc(CC)cc([C@H]2CNC(=O)[C@@H]2C(=O)Nc2ccccc2F)c1 [Compound 1138]
30%: pest or weed control at 125 g/ha [2] | plant injury at 125 g/ha ([8]; visual injury on 0 to 100 scale (0 no effect, 100 complete control), approx. 10 d, read-out: Wheat plant response rating) | pest or weed control at 125 g/ha ([10]; visual injury on 0 to 100 scale (0 no effect, 100 complete control), approx. 10 d, read-out: Blackgrass plant response rating)
60%: pest or weed control at 500 g/ha [10, 19]
50%: pest or weed control at 500 g/ha [2] | plant injury at 125 g/ha (corn (Zea mays); visual injury on 0 to 100 scale (0 no effect, 100 complete control), approx. 10 d, read-out: Corn plant response rating) | pest or weed control at 500 g/ha [9, 18] | pest or weed control at 500 g/ha [12, 21] | pest or weed control at 125 g/ha ([14]; visual injury on 0 to 100 scale (0 no effect, 100 complete control), approx. 10 d, read-out: Foxtail, Giant plant response rating)
70%: plant injury at 500 g/ha [8, 17]
0%: pest or weed control at 125 g/ha (Kochia (Kochia scoparia) [3]) | pest or weed control at 125 g/ha [4] | pest or weed control at 500 g/ha [4] | pest or weed control at 125 g/ha [5] | pest or weed control at 500 g/ha [5] | pest or weed control at 125 g/ha ([9]; visual injury on 0 to 100 scale (0 no effect, 100 complete control), approx. 10 d, read-out: Ryegrass, Italian plant response rating) | pest or weed control at 125 g/ha (Kochia (Kochia scoparia) [11]; visual injury on 0 to 100 scale (0 no effect, 100 complete control), approx. 10 d, read-out: Kochia plant response rating) | pest or weed control at 500 g/ha (Kochia (Kochia scoparia) [11]; [20]) | pest or weed control at 125 g/ha ([13]; visual injury on 0 to 100 scale (0 no effect, 100 complete control), approx. 10 d, read-out: Pigweed plant response rating) | pest or weed control at 500 g/ha [13, 22]
80%: pest or weed control at 500 g/ha (Kochia (Kochia scoparia) [3]) | plant injury at 500 g/ha (corn (Zea mays); [16])
90%: pest or weed control at 125 g/ha [1] | pest or weed control at 500 g/ha [1] | pest or weed control at 125 g/ha [6] | pest or weed control at 500 g/ha [6] | pest or weed control at 125 g/ha ([7]; visual injury on 0 to 100 scale (0 no effect, 100 complete control), approx. 10 d, read-out: Barnyardgrass plant response rating) | pest or weed control at 500 g/ha [7, 15] | pest or weed control at 500 g/ha [14, 23]
20%: pest or weed control at 125 g/ha ([12]; visual injury on 0 to 100 scale (0 no effect, 100 complete control), approx. 10 d, read-out: Galium plant response rating)

CCc1cc([C@H]2CN(C)C(=O)[C@@H]2C(=O)Nc2ccccc2F)cs1 [Compound 1156]
80%: pest or weed control at 500 g/ha (Kochia (Kochia scoparia) [3])
20%: pest or weed control at 125 g/ha [2] | pest or weed control at 500 g/ha [4] | plant injury at 125 g/ha (corn (Zea mays); visual injury vs untreated controls after approx. 10 d, 0 = no effect, 100 = complete control, read-out: Corn plant response rating (0 to 100 scale)) | plant injury at 125 g/ha ([8]; visual injury vs untreated controls after approx. 10 d, 0 = no effect, 100 = complete control, read-out: Wheat plant response rating (0 to 100 scale)) | pest or weed control at 125 g/ha ([9]; visual injury vs untreated controls after approx. 10 d, 0 = no effect, 100 = complete control, read-out: Ryegrass, Italian plant response rating (0 to 100 scale)) | pest or weed control at 500 g/ha (Kochia (Kochia scoparia) [11]; [20])
90%: pest or weed control at 125 g/ha [1] | pest or weed control at 500 g/ha [1] | pest or weed control at 125 g/ha [6] | pest or weed control at 125 g/ha ([7]; visual injury vs untreated controls after approx. 10 d, 0 = no effect, 100 = complete control, read-out: Barnyardgrass plant response rating (0 to 100 scale)) | pest or weed control at 500 g/ha [7, 15] | pest or weed control at 125 g/ha ([14]; visual injury vs untreated controls after approx. 10 d, 0 = no effect, 100 = complete control, read-out: Foxtail, Giant plant response rating (0 to 100 scale)) | pest or weed control at 500 g/ha [14, 23]
100%: pest or weed control at 125 g/ha [5] | pest or weed control at 500 g/ha [5] | pest or weed control at 500 g/ha [6]
30%: pest or weed control at 500 g/ha [2] | pest or weed control at 500 g/ha [9, 18]
60%: plant injury at 500 g/ha (corn (Zea mays); [16])
0%: pest or weed control at 125 g/ha [4] | pest or weed control at 125 g/ha ([10]; visual injury vs untreated controls after approx. 10 d, 0 = no effect, 100 = complete control, read-out: Blackgrass plant response rating (0 to 100 scale)) | pest or weed control at 125 g/ha (Kochia (Kochia scoparia) [11]; visual injury vs untreated controls after approx. 10 d, 0 = no effect, 100 = complete control, read-out: Kochia plant response rating (0 to 100 scale)) | pest or weed control at 125 g/ha ([13]; visual injury vs untreated controls after approx. 10 d, 0 = no effect, 100 = complete control, read-out: Pigweed plant response rating (0 to 100 scale)) | pest or weed control at 500 g/ha [13, 22]
40%: pest or weed control at 500 g/ha [10, 19] | pest or weed control at 125 g/ha ([12]; visual injury vs untreated controls after approx. 10 d, 0 = no effect, 100 = complete control, read-out: Galium plant response rating (0 to 100 scale))
50%: plant injury at 500 g/ha [8, 17] | pest or weed control at 500 g/ha [12, 21]
70%: pest or weed control at 125 g/ha (Kochia (Kochia scoparia) [3])

— patent US12077503B2, “Substituted cyclic amides and their use as herbicides” (FMC CORPORATION, priority 2015, dated 2024)
